Measured values taken from a melting point compilation (Tetko et al.; mined from patent text by program, amines drawn as free bases though some values may be those of a salt).

Row | melting point | SMILES
1 | 279 to 282 °C | O=C(O)c1cc(C(=O)O)c2cc(Cc3ccc(F)cc3)cnc2c1O
2 | 172 to 176 °C | COc1cc2c(cc1OS(N)(=O)=O)CC(C)(C)N(C(=O)c1cc(OC)c(OC)c(OC)c1)C2
3 | 130 to 131 °C | CCOC(=O)C(C(=O)OCC)c1cccc(C(=O)c2ccccc2)c1[N+](=O)[O-]
4 | 200 to 203 °C | CCOC(=O)COc1ccc(NC(=O)NC(=O)c2ccc(C#N)cc2)cc1
5 | 50 °C | CC(C)(C)OC(=O)CC(Cc1ccccc1)NC(=O)C1Cc2ccccc2N1S(=O)(=O)c1ccc(-c2cccc(C(F)(F)F)c2)cc1 (stereo not drawn)
6 | 148 to 152 °C | CCCCN(CCCC)c1ccc(C2(c3cc(Nc4ccccc4)ccc3OC)OC(=O)c3ccccc32)c(O)c1 (stereo not drawn)
7 | 213 to 214 °C | NS(=O)(=O)c1cc(CO)cc(NCc2ccccc2)c1S(=O)c1ccccc1 (stereo not drawn)
8 | 129 to 131 °C | COCCOCc1nn2c(-c3ccc(OC)cc3)nnc2c2ccccc12
9 | 306 °C | CCCCCCCc1ccc(C(=O)Nc2ccc(C(=O)NN=C3C(=O)Nc4ccc(I)cc43)cc2)cc1
10 | 201 to 203 °C | Nc1c(Br)cc(-c2nc3ccccc3s2)cc1Br
11 | 434 °C | CC(Nc1nc(Oc2cccc3[nH]c(=O)c(N)nc23)cc(-c2ccc(C(F)(F)F)cc2)n1)c1ccc(F)cc1 (stereo not drawn)
12 | 286 to 289 °C | Nc1ccc(CN2C(=O)[C@H]3CCC[C@H]3N(C(=O)CN3C(=O)c4ccccc4C3=O)c3ccccc32)cc1 (relative stereo)
13 | 64 to 65 °C | CC(CN=C(O)C(Cl)=C(Cl)C(=O)O)Cc1ccc(C(C)(C)C)cc1 (stereo not drawn)
14 | 99 to 101 °C | CN(C)CCNC(=O)N1CCN(c2ccc(F)cc2)CC1
15 | 148 to 150 °C | CC(C)CC(NC(=O)Cc1ccc(NC(=O)Nc2c(Cl)cccc2Cl)cc1)c1ncc(CCC(=O)O)s1 (stereo not drawn)
16 | 242 to 244 °C | O=C(O)c1cccc(-n2c(-c3ccc(Br)cc3)cc3c2CCCC3)c1
17 | 94 to 95 °C | COc1ccc(C2NCCS2)cc1 (stereo not drawn)
18 | 95 to 96 °C | O=Cc1ccc(F)c(F)c1
19 | 112 to 113 °C | CS(=O)CCNC(=O)c1cccc(-c2ccc3c(c2)C(c2ccc(Cl)cc2Cl)CC3)c1 (stereo not drawn)

Row | melting point | SMILES
20 | 190 to 192 °C | COc1ccc(-c2ccc(N3CCCN(c4ccc(-c5ccc(OC)c(OC)c5)cn4)CC3)nc2)cc1OC
21 | 195 °C | Cc1nc2c(cnn2-c2c(Cl)cc(C(F)(F)F)cc2Cl)c(=O)n1C
22 | 130 °C | CCC(C#N)c1cccc(C(=O)c2cc3cc(C(=O)OC)sc3s2)c1 (stereo not drawn)
23 | 234 to 236 °C | O=c1[nH]c2cc([N+](=O)[O-])cnc2n1-c1ccccc1F
24 | 164 to 165 °C | CS(=O)(=O)c1ccc(-c2ccccc2N)cc1
25 | 189 to 191 °C | CCCCOc1ccc(S(C)(=O)=O)cc1-c1nc2c(CC)nn(Cc3ccccn3)c2c(=O)[nH]1
26 | 205 °C | CS(=O)(=O)c1ccc(-c2oc(CO)cc(=O)c2Oc2ccc(F)cc2F)cc1
27 | 96.6 °C | COc1cc(C(C)(C)C)c(OC(C)=O)c(C(C)(C)C)c1
28 | 108 to 110 °C | Cc1sc(C(F)(F)F)nc1O
29 | > 300 °C | COc1ccc(-c2cc3c(O)ncnc3[nH]2)cc1
30 | 116 to 127 °C | N#Cc1ccc2c(c1)C(=O)c1ccccc1OC2
31 | 139 to 142 °C | COc1ccc(C2CNCCc3c2cc(OC)c(OC)c3Cl)cc1 (stereo not drawn)
32 | 57 to 58 °C | Nc1sc2c(c1C(=O)c1ccsc1)CCC(Cc1ccccc1)C2 (stereo not drawn)
33 | 84 to 86 °C | CC(=O)SC(CC(=O)c1ccc(C(C)C)cc1)C(=O)O (stereo not drawn)
34 | 138 to 140 °C | S=C1CSc2cccc(Cl)c2N1
35 | 62 to 65 °C | COC(=O)C(CCCCNC(=O)COCc1ccccc1)NC(=O)COCc1ccccc1 (stereo not drawn)
36 | 169 to 171 °C | COc1cc2c(cc1OC)C(Cc1cc(I)c(N)c(I)c1)NCC2 (stereo not drawn)
37 | 188 °C | O=Cc1ccc(Sc2nc3ncccc3[nH]2)o1

Row | SMILES | melting point
38 | CCOC(=O)Nc1ccc(OC(=O)NC)cc1C | 153 to 155 °C
